Converted amounts (≈) assume the structure as drawn. Like-named read-outs stand apart in the source and are kept apart here.
Columns and labels:
[1] = tested on: Haemophilus influenzae Holt; experiment: Antibiotic activity, standard agar-dilution assay (MIC); assay type: cell-based; settings: H. influenzae Holt, ampicillin-sensitive strain
Method: (§1) The MIC's in Table III were determined by standard agar-dilution assays. The MIC's in Table IV were obtained using a conventional broth-dilution microtiter test.
(§2) Antibiotic Activity of C-23 Modified Derivatives of DMT^a

[2] = tested on: Haemophilus influenzae R52; experiment: as above; assay type: cell-based; settings: H. influenzae R52, ampicillin-resistant strain
Method: as §1, §2

[3] = tested on: Staphylococcus aureus S13E; experiment: as above; assay type: cell-based
Method: as §1, §2

[4] = tested on: Staphylococcus aureus V41; experiment: as above; assay type: cell-based
Method: as §1, §2

[5] = tested on: Staphylococcus aureus X1.1; experiment: as above; assay type: cell-based; settings: S. aureus X1.1
Method: as §1, §2

[6] = tested on: Staphylococcus aureus X400; experiment: as above; assay type: cell-based
Method: as §1, §2

[7] = tested on: Staphylococcus epidermidis EPI1; experiment: as above; assay type: cell-based; settings: S. epidermidis EPI1
Method: as §1, §2

[8] = tested on: Staphylococcus epidermidis EPI2; experiment: as above; assay type: cell-based; settings: S. epidermidis EPI2
Method: as §1, §2

Streptococcus Group 9960 = experiment: as above; assay type: cell-based; settings: GROUP9960
Method: as §1, §2

[9] = tested on: Streptococcus Group D X66; experiment: as above; assay type: cell-based
Method: as §1, §2

[10] = tested on: Streptococcus pneumoniae Park I; experiment: as above; assay type: cell-based; settings: S. pneumoniae Park I
Method: as §1, §2

[11] = tested on: Streptococcus pyogenes C203; experiment: as above; assay type: cell-based; settings: S. pyogenes C203
Method: as §1, §2

Mycoplasma gallisepticum [12] = experiment: Antibiotic activity, broth-dilution microtiter test (MIC); assay type: cell-based; settings: Mycoplasmoides gallisepticum, M. gallisepticum
Method: as §1
(§3) Antibiotic Activity of DMT Derivatives^a

Mycoplasma hyorhinis = experiment: as above; assay type: cell-based
Method: as §1, §3

Mycoplasma synoviae = experiment: as above; assay type: cell-based; settings: Mycoplasmopsis synoviae, M. synoviae
Method: as §1, §3

[13] = tested on: Pasteurella hemolytica 22C; experiment: as above; assay type: cell-based
Method: as §1, §3

[14] = tested on: Pasteurella hemolytica 23C; experiment: as above; assay type: cell-based; settings: P. hemolytica 23C
Method: as §1, §3

[15] = tested on: Pasteurella hemolytica 41D; experiment: as above; assay type: cell-based; settings: P. hemolytica 41D
Method: as §1, §3

[16] = tested on: Pasteurella multocida 17E; experiment: as above; assay type: cell-based; settings: P. multocida 17E, bovine isolate
Method: as §1, §3

[17] = tested on: Pasteurella multocida 22A; experiment: as above; assay type: cell-based; settings: P. multocida 22A
Method: as §1, §3

[18] = tested on: Pasteurella multocida 40G; experiment: as above; assay type: cell-based; settings: P. multocida 40G
Method: as §1, §3

[19] = tested on: Pasteurella multocida 60A; experiment: as above; assay type: cell-based; settings: P. multocida 60A, avian isolate
Method: as §1, §3

[20] = tested on: Pasteurella multocida 68C; experiment: as above; assay type: cell-based; settings: P. multocida 68C
Method: as §1, §3

Staphylococcus aureus = experiment: as above; assay type: cell-based; settings: S. aureus
Method: as §1, §3

Streptococcus bovis 80 = experiment: as above; assay type: cell-based; settings: S. bovis 80
Method: as §1, §3

[21] = tested on: Streptococcus pyogenes C203; experiment: ED50 in mice experimentally infected with S. pyogenes C203; assay type: in vivo; settings: doses given 1 and 4 hours postinfection
Method: The C-23 modified derivatives of DMT of this invention have shown in vivo antimicrobial activity against experimentally-induced infections in laboratory animals. When two doses of test compound were administered to mice experimentally infected with S. pyogenes C203, the activity observed was measured as an ED50 value [effective dose in mg/kg to protect 50% of the test animals: see Warren Wick, et al., J. Bacteriol. 81, 233-235 (1961)].
^a mg/kg × 2; doses given 1 and 4 hours postinfection

Mycoplasma gallisepticum [22] = experiment: Antimycoplasmal activity of DMT derivatives in chicks; assay type: in vivo; settings: for Number with Antibodies/Number Tested: antibodies to M. gallisepticum
Method: In these tests infections were induced in chicks by injecting 0.2 ml. of a broth culture of M. gallisepticum into the abdominal air sac of two- to three-day-old chicks. The compounds were administered subcutaneously at a dose of 60 mg/kg once only on the day of infection or, at the same level, two times on the day of infection and two times on the first day post-infection. Twenty-one days post-infection, the chicks were weighed, a blood sample was taken, and the chicks were sacrificed. The presence or absence of air-sac lesions was recorded.

[23] = agar dilution, S. aureus V41, penicillin-resistant strain, read-out: MIC
[24] = subcutaneous 60 mg/kg × 1, 21 days post-infection
[25] = subcutaneous 60 mg/kg × 4, 21 days post-infection
[26] = agar dilution, S. aureus X400, methicillin-resistant strain, read-out: MIC
[27] = agar dilution, Streptococcus Group D X66, read-out: MIC
[28] = broth-dilution microtiter, M. hyorhinis, read-out: MIC
[29] = broth-dilution microtiter, P. hemolytica 22C, read-out: MIC

Row | Compound | MIC [1] [µg/mL] | MIC [3] [µg/mL] | MIC [5] [µg/mL] | MIC [7] [µg/mL] | MIC [8] [µg/mL] | MIC (Streptococcus Group 9960) [µg/mL] | MIC [10] [µg/mL] | MIC [11] [µg/mL] | MIC (Mycoplasma gallisepticum [12]) [µg/mL] | MIC (Mycoplasma synoviae) [µg/mL] | MIC [14] [µg/mL] | MIC [15] [µg/mL] | MIC [16] [µg/mL] | MIC [17] [µg/mL] | MIC [18] [µg/mL] | MIC [19] [µg/mL] | MIC [20] [µg/mL] | MIC (Staphylococcus aureus) [µg/mL] | MIC (Streptococcus bovis 80) [µg/mL] | ED50 ([21]; C203, oral) [mg/kg] | also measured
1 | CCC1OC(=O)CC(O)C(C)C(OC2OC(C)C(OC3CC(C)(O)C(O)C(C)O3)C(N(C)C)C2O)C(CC=O)CC(C)C(=O)C=CC(C)=CC1CN=[N+]=[N-] (centres unmarked) [Compound 1, 23-Deoxy-23-Azido-DMT] | 8 (≈ 10.4 µM) | 0.25 (≈ 0.326 µM) | 0.25 (≈ 0.326 µM) | 0.25 (≈ 0.326 µM) | 0.25 (≈ 0.326 µM) | 0.25 (≈ 0.326 µM) | 0.06 (≈ 0.0782 µM) | 0.125 (≈ 0.163 µM) | 0.19 (≈ 0.248 µM) | 0.78 (≈ 1.02 µM) | 25 (≈ 32.6 µM) | 25 (≈ 32.6 µM) | 6.25 (≈ 8.15 µM) | 12.5 (≈ 16.3 µM) | 6.25 (≈ 8.15 µM) | 6.25 (≈ 8.15 µM) | 6.25 (≈ 8.15 µM) | 1.56 (≈ 2.03 µM) | 0.39 (≈ 0.509 µM) | 68 | MIC [2]: 8 µg/mL (≈ 10.4 µM); MIC [4, 23]: 0.25 µg/mL (≈ 0.326 µM); MIC ([6]; X400): 0.5 µg/mL (≈ 0.652 µM); MIC [9]: 0.5 µg/mL (≈ 0.652 µM); MIC (Mycoplasma hyorhinis): > 50 µg/mL; MIC ([13]; 22C): 25 µg/mL (≈ 32.6 µM); ED50 ([21]; C203, sc, subcutaneous): 10.5 mg/kg; Number with Antibodies/Number Tested (Mycoplasma gallisepticum [22]; [24]): 5/10; Number with Antibodies/Number Tested (Mycoplasma gallisepticum [22]; [25]): 0/10; Mortality (Mycoplasma gallisepticum [22]; [24]): 0/10; Number with Air-Sac Lesions/Number Treated (Mycoplasma gallisepticum [22]; [24]): 3/10; Mortality (Mycoplasma gallisepticum [22]; [25]): 0/10; Number with Air-Sac Lesions/Number Treated (Mycoplasma gallisepticum [22]; [25]): 0/10
2 | CCC1OC(=O)CC(O)C(C)C(OC2OC(C)C(OC3CC(C)(O)C(O)C(C)O3)C(N(C)C)C2O)C(CC=O)CC(C)C(=O)C=CC(C)=CC1CN (centres unmarked) [Compound 2, 23-Deoxy-23-amino-DMT] | 16 (≈ 21.6 µM) | 4 (≈ 5.4 µM) | 2 (≈ 2.7 µM) | 4 (≈ 5.4 µM) | 8 (≈ 10.8 µM) | 8 (≈ 10.8 µM) | 0.5 (≈ 0.675 µM) | 1 (≈ 1.35 µM) | 1.56 (≈ 2.11 µM) | 0.78 (≈ 1.05 µM) | 12.5 (≈ 16.9 µM) | 12.5 (≈ 16.9 µM) | 6.25 (≈ 8.44 µM) | 12.5 (≈ 16.9 µM) | 12.5 (≈ 16.9 µM) | 12.5 (≈ 16.9 µM) | 12.5 (≈ 16.9 µM) | 6.25 (≈ 8.44 µM) | 1.56 (≈ 2.11 µM) | > 100 | MIC [2]: 16 µg/mL (≈ 21.6 µM); MIC [4, 23]: 8 µg/mL (≈ 10.8 µM); MIC [6, 26]: 8 µg/mL (≈ 10.8 µM); MIC [9, 27]: 8 µg/mL (≈ 10.8 µM); MIC (Mycoplasma hyorhinis; [28]): 25 µg/mL (≈ 33.7 µM); MIC [13, 29]: 25 µg/mL (≈ 33.7 µM); ED50 ([21]; C203, sc, subcutaneous): < 1.5 mg/kg
3 | CCC1OC(=O)CC(O)C(C)C(OC2OC(C)C(OC3CC(C)(O)C(O)C(C)O3)C(N(C)C)C2O)C(CC=O)CC(C)C(=O)C=CC(C)=CC1CNC(=O)Cc1ccccc1 (centres unmarked) [Compound 3, 23-Deoxy-23-(phenylacetyl)amino-DMT] | 8 (≈ 9.31 µM) | 0.5 (≈ 0.582 µM) | 0.5 (≈ 0.582 µM) | 0.5 (≈ 0.582 µM) | 1 (≈ 1.16 µM) | 0.5 (≈ 0.582 µM) | 0.25 (≈ 0.291 µM) | 0.25 (≈ 0.291 µM) | 0.09 (≈ 0.105 µM) | 0.39 (≈ 0.454 µM) | 25 (≈ 29.1 µM) | 25 (≈ 29.1 µM) | 12.5 (≈ 14.6 µM) | 50 (≈ 58.2 µM) | 25 (≈ 29.1 µM) | 25 (≈ 29.1 µM) | 25 (≈ 29.1 µM) | 1.56 (≈ 1.82 µM) | 0.19 (≈ 0.221 µM) | > 100 | MIC [2]: 8 µg/mL (≈ 9.31 µM); MIC ([4]; V41): 1 µg/mL (≈ 1.16 µM); MIC ([6]; X400): 1 µg/mL (≈ 1.16 µM); MIC [9, 27]: 0.5 µg/mL (≈ 0.582 µM); MIC (Mycoplasma hyorhinis; [28]): 1.56 µg/mL (≈ 1.82 µM); MIC [13, 29]: 50 µg/mL (≈ 58.2 µM); ED50 ([21]; C203, sc, subcutaneous): 3.8 mg/kg; Number with Antibodies/Number Tested (Mycoplasma gallisepticum [22]; [24]): 8/9; Number with Antibodies/Number Tested (Mycoplasma gallisepticum [22]; [25]): 3/10; Mortality (Mycoplasma gallisepticum [22]; [24]): 1/10; Number with Air-Sac Lesions/Number Treated (Mycoplasma gallisepticum [22]; [24]): 8/10; Mortality (Mycoplasma gallisepticum [22]; [25]): 0/10; Number with Air-Sac Lesions/Number Treated (Mycoplasma gallisepticum [22]; [25]): 0/10
4 | CCC1OC(=O)CC(O)C(C)C(OC2OC(C)C(OC3CC(C)(O)C(O)C(C)O3)C(N(C)C)C2O)C(CC=O)CC(C)C(=O)C=CC(C)=CC1CSc1ccccc1 (centres unmarked) [Compound 4, 23-Deoxy-23-(phenyl)thio-DMT] | 4 (≈ 4.8 µM) | 0.5 (≈ 0.599 µM) | 0.5 (≈ 0.599 µM) | 0.5 (≈ 0.599 µM) | 0.5 (≈ 0.599 µM) | 0.125 (≈ 0.15 µM) | 0.03 (≈ 0.036 µM) | 0.125 (≈ 0.15 µM) | ≤ 0.05 | 0.19 (≈ 0.228 µM) | 25 (≈ 30 µM) | 12.5 (≈ 15 µM) | 6.25 (≈ 7.49 µM) | 12.5 (≈ 15 µM) | 6.25 (≈ 7.49 µM) | 6.25 (≈ 7.49 µM) | 12.5 (≈ 15 µM) | 0.39 (≈ 0.468 µM) | 0.19 (≈ 0.228 µM) | 71 | MIC [4, 23]: 0.25 µg/mL (≈ 0.3 µM); MIC [6, 26]: 0.5 µg/mL (≈ 0.599 µM); MIC [9, 27]: 0.25 µg/mL (≈ 0.3 µM); MIC (Mycoplasma hyorhinis; [28]): 0.78 µg/mL (≈ 0.935 µM); MIC [13, 29]: 25 µg/mL (≈ 30 µM); ED50 ([21]; C203, sc, subcutaneous): < 25 mg/kg; Number with Antibodies/Number Tested (Mycoplasma gallisepticum [22]; [24]): 8/10; Number with Antibodies/Number Tested (Mycoplasma gallisepticum [22]; [25]): 7/10; Mortality (Mycoplasma gallisepticum [22]; [24]): 0/10; Number with Air-Sac Lesions/Number Treated (Mycoplasma gallisepticum [22]; [24]): 7/10; Mortality (Mycoplasma gallisepticum [22]; [25]): 0/10; Number with Air-Sac Lesions/Number Treated (Mycoplasma gallisepticum [22]; [25]): 3/10

From US4452784A, “C-23-Modified derivatives of DMT” (Eli Lilly and Company, priority 1982, dated 1984)
